Calls of active or inactive are those of the source. No cut-off for these calls is given here.
Key:
DU-145 [1] = test: Induction of cell cycle arrest in human DU145 cells assessed as accumulation at Sub G1 phase at 20 uM after 12 hrs by propidium iodide staining-based flow cytometry (reference value: 1.57 to 1.59%); format: functional
[2] = Antiproliferative activity against human PC3 cells after 48 hrs by MTT assay; format: functional, cell-based; conditions: PC-3, 48 h
DU-145 [3] = test: Induction of morphological changes in human DU145 cells assessed as formation of bubble-shaped regions at 20 uM after 12 hrs by inverted microscopy; format: functional, cell-based
DU-145 [4] = test: Induction of morphological changes in human DU145 cells assessed as spherical cells at 20 uM after 12 hrs by inverted microscopy; format: functional, cell-based
DU-145 [5] = test: Induction of cell cycle arrest in human DU145 cells assessed as accumulation at Sub G1 phase at 20 uM after 3 hrs by propidium iodide staining-based flow cytometry (reference value: 1.57 to 1.59%); format: functional
[6] = Cytotoxicity against human IOSE-144 cells after 48 hrs by MTT assay; format: cell-based; conditions: IOSE-144, 48 h
[7] = Antiproliferative activity against human DU145 cells after 48 hrs by MTT assay; format: functional, cell-based; conditions: DU-145, 48 h
DU-145 [8] = test: Induction of morphological changes in human DU145 cells assessed as decrease in cell size at 20 uM after 12 hrs by inverted microscopy; format: functional, cell-based
DU-145 [9] = test: Induction of apoptosis in human DU145 cells assessed as chromatin nucleus condensation at 20 uM after 12 hrs by DAPI staining-based fluorescence microscopy; format: functional, cell-based
DU-145 [10] = test: Induction of apoptosis in human DU145 cells assessed as formation of apoptotic bodies at 20 uM after 12 hrs by DAPI staining-based fluorescence microscopy; format: functional, cell-based
[11] = Antiproliferative activity against human alpha-2 cells after 48 hrs by MTT assay; format: functional, cell-based
MDA-MB-231 = test: Antiproliferative activity against human MDA-MB-231 cells after 48 hrs by MTT assay; format: functional, cell-based; conditions: MDA-MB-231, 48 h
[12] = Antiproliferative activity against human BGC823 cells after 48 hrs by MTT assay; format: functional, cell-based; conditions: BGC-823, 48 h
DU-145 [13] = test: Induction of cell cycle arrest in human DU145 cells assessed as accumulation at Sub G1 phase at 20 uM after 6 hrs by propidium iodide staining-based flow cytometry (reference value: 1.57 to 1.59%); format: functional
DU-145 [14] = test: Induction of cell cycle arrest in human DU145 cells assessed as accumulation at Sub G1 phase at 20 uM after 18 hrs by propidium iodide staining-based flow cytometry (reference value: 1.57 to 1.59%); format: functional

| IC50 (MDA-MB-231) [µM] | Structure (SMILES) | Activity (DU-145 [1]) [%] | IC50 [2] [µM] | Activity (DU-145 [3]) | Activity (DU-145 [4]) | Activity (DU-145 [5]) [%] | IC50 [6] [µM] | IC50 [7] [µM] | Activity (DU-145 [8]) | Activity (DU-145 [9]) | Activity (DU-145 [10]) | IC50 [11] [µM] | IC50 [12] [µM] | Activity (DU-145 [13]) [%] | Activity (DU-145 [14]) [%] |
| --- | --- | --- | --- | --- | --- | --- | --- | --- | --- | --- | --- | --- | --- | --- | --- |
| 4.2 | CC(C)(O)CCC[C@@](C)(O)[C@H]1CC[C@]2(C)[C@@H]1[C@H](O)C[C@@H]1[C@@]3(C)CC[C@H](OC(=O)[C@@H](N)CCCNC(=N)N)C(C)(C)[C@@H]3CC[C@]12C | 34.07 | 6.1 | Active | Active | 7.37 | > 100 | 5.5 | Active | Active | Active | 7.1 | 4.6 | 16.29 | – |
| 4.2 | CC(C)(O)CCC[C@@](C)(O)[C@H]1CC[C@]2(C)[C@@H]1[C@H](O)C[C@@H]1[C@@]3(C)CC[C@H](OC(=O)[C@@H](N)CCC(=O)O)C(C)(C)[C@@H]3CC[C@]12C | 13.39 | 9.9 | Active | Active | – | > 100 | 6.5 | Active | Active | Active | 6.2 | 6.9 | 9.81 | 30.53 |
| 6.4 | CC[C@H](C)[C@H](N)C(=O)O[C@H]1CC[C@]2(C)[C@H]3C[C@@H](O)[C@@H]4[C@@H]([C@](C)(O)CCCC(C)(C)O)CC[C@@]4(C)[C@]3(C)CC[C@H]2C1(C)C | – | 8.4 | – | – | – | > 100 | 14 | – | – | – | 17 | 10 | – | – |

— ChEMBL document CHEMBL3769368, “Semi-synthesis and anti-tumor evaluation of novel 25-hydroxyprotopanaxadiol derivatives as apoptosis inducing agents” (Medchemcomm, 2015)
